In patent publication US6495133B1, “Gliocladium roseum strains useful for the control of fungal pathogens in plants” (priority 1998, dated 2002):

System: Pythium aphanidermatum
Test: Comparison and compatibility of ACM941 with metalaxyl fungicide, pythium root rot of field pea, field experiments
Type: in vivo
Conditions: for Emergence / Yield: Saturn field pea
[1] = average of the two testing years

Question: Which results are given for `COCC(=O)N(c1c(C)cccc1C)C(C)C(=O)OC` (stereo not drawn) [Metalaxyl, metalaxyl]?
Answer: Emergence 1997: 44.3 ab %; Yield 1997: 990 bc kg/ha; Emergence 1998: 78.2 a %; Yield 1998: 5757 a kg/ha; increased emergence by [1]: 17.3%; increased yield by [1]: 19.5%
